Measured values reported in ChEMBL document CHEMBL2396531, “Hybrid molecule from O2-(2,4-dinitrophenyl)diazeniumdiolate and oleanolic acid: a glutathione S-transferase π-activated nitric oxide prodrug with selective anti-human hepatocellular carcinoma activity and improved stability” (J Med Chem, 2013).
Active and inactive are the calls of the source. The rule behind the calls is not given here.

What was measured:
[1] = tested on: HepG2; assay: Cytotoxicity against human HepG2 cells at 10 to 100 uM after 24 hrs by MTT assay; format: functional, cell-based
[2] = tested on: Bel-7402; assay: Cytotoxicity against human Bel7402 cells at 30 uM after 24 hrs by MTT assay; format: functional
[3] = tested on: SMMC-7721; assay: Cytotoxicity against human SMMC7721 cells at 30 uM after 24 hrs by MTT assay; format: functional
[4] = tested on: HepG2; assay: Cytotoxicity against human HepG2 cells at 30 uM after 24 hrs by MTT assay; format: functional
[5] = tested on: HepG2; assay: Induction of intracellular NO release in human HepG2 cells at 10 uM after 24 hrs by DAF-FM DA staining-based flow cytometry; format: functional, cell-based
[6] = tested on: HepG2; assay: Induction of intracellular NO release in human HepG2 cells at 30 uM after 6 hrs by Griess assay; format: functional, cell-based
[7] = tested on: HepG2; assay: Cytotoxicity against human HepG2 cells assessed as cell viability at 3 uM after 24 hrs by MTT assay; format: functional
[8] = tested on: HepG2; assay: Cytotoxicity against human HepG2 cells assessed as cell viability at 3 uM after 24 hrs by MTT assay in presence of EA; format: functional
[9] = tested on: HepG2; assay: Cytotoxicity against human HepG2 cells assessed as cell viability at 3 uM after 24 hrs by MTT assay in presence of hemoglobin; format: functional, cell-based

Compound	Activity [2]	Activity [3]	Activity [4]	further results
CC1(C)CC[C@]2(C(=O)O[C@@H]3O[C@H](CO)[C@H](O)[C@H](O)[C@H]3O)CC[C@]3(C)C(=CC[C@@H]4[C@@]5(C)CC[C@H](O)C(C)(C)[C@@H]5CC[C@]43C)[C@@H]2C1	–	–	–	Activity [1]: Active
CN(CCO)/[N+]([O-])=N/Oc1cc(NCCCC(=O)O[C@H]2CC[C@]3(C)[C@H]4CC=C5[C@@H]6CC(C)(C)CC[C@]6(C(=O)O[C@@H]6O[C@H](CO)[C@H](O)[C@H](O)[C@H]6O)CC[C@@]5(C)[C@]4(C)CC[C@H]3C2(C)C)c([N+](=O)[O-])cc1[N+](=O)[O-]	Active	Active	Active	–
CC(C)C[C@H](Nc1cc(O/N=[N+](\[O-])N(C)CCO)c([N+](=O)[O-])cc1[N+](=O)[O-])C(=O)O[C@H]1CC[C@]2(C)[C@H]3CC=C4[C@@H]5CC(C)(C)CC[C@]5(C(=O)O[C@@H]5O[C@H](CO)[C@H](O)[C@H](O)[C@H]5O)CC[C@@]4(C)[C@]3(C)CC[C@H]2C1(C)C	Active	Active	Active	–
CN1CCN(/[N+]([O-])=N\Oc2cc(NCCC(=O)O[C@H]3CC[C@]4(C)[C@H]5CC=C6[C@@H]7CC(C)(C)CC[C@]7(C(=O)O[C@@H]7O[C@H](CO)[C@H](O)[C@H](O)[C@H]7O)CC[C@@]6(C)[C@]5(C)CC[C@H]4C3(C)C)c([N+](=O)[O-])cc2[N+](=O)[O-])CC1	Active	Active	Active	–
CN(C)/[N+]([O-])=N\Oc1cc(NCCC(=O)O[C@H]2CC[C@]3(C)[C@H]4CC=C5[C@@H]6CC(C)(C)CC[C@]6(C(=O)O[C@@H]6O[C@H](CO)[C@H](O)[C@H](O)[C@H]6O)CC[C@@]5(C)[C@]4(C)CC[C@H]3C2(C)C)c([N+](=O)[O-])cc1[N+](=O)[O-]	Active	Active	Active	–
CCN(CC)/[N+]([O-])=N\Oc1cc(NCCC(=O)O[C@H]2CC[C@]3(C)[C@H]4CC=C5[C@@H]6CC(C)(C)CC[C@]6(C(=O)O[C@@H]6O[C@H](CO)[C@H](O)[C@H](O)[C@H]6O)CC[C@@]5(C)[C@]4(C)CC[C@H]3C2(C)C)c([N+](=O)[O-])cc1[N+](=O)[O-]	Active	Active	Active	–
CC1(C)CC[C@]2(C(=O)O[C@@H]3O[C@H](CO)[C@H](O)[C@H](O)[C@H]3O)CC[C@]3(C)C(=CC[C@@H]4[C@@]5(C)CC[C@H](OC(=O)CCNc6cc(O/N=[N+](/[O-])N7CCN(Cc8ccccc8)CC7)c([N+](=O)[O-])cc6[N+](=O)[O-])C(C)(C)[C@@H]5CC[C@]43C)[C@@H]2C1	Active	Active	Active	–
CCOC(=O)N1CCN(/[N+]([O-])=N/Oc2ccc([N+](=O)[O-])cc2[N+](=O)[O-])CC1	–	–	–	Activity [5]: Active
CN(CCO)/[N+]([O-])=N\Oc1cc(N2CCN(CC(=O)O)CC2)c([N+](=O)[O-])cc1[N+](=O)[O-]	–	–	–	Activity [1]: Active
CN(CCO)/[N+]([O-])=N\Oc1cc(NCCC(=O)O[C@H]2CC[C@]3(C)[C@H]4CC=C5[C@@H]6CC(C)(C)CC[C@]6(C(=O)O[C@@H]6O[C@H](CO)[C@H](O)[C@H](O)[C@H]6O)CC[C@@]5(C)[C@]4(C)CC[C@H]3C2(C)C)c([N+](=O)[O-])cc1[N+](=O)[O-]	–	–	–	Activity [6]: Active
CN(CCO)/[N+]([O-])=N/Oc1cc(NCC(=O)O[C@H]2CC[C@]3(C)[C@H]4CC=C5[C@@H]6CC(C)(C)CC[C@]6(C(=O)O[C@@H]6O[C@H](CO)[C@H](O)[C@H](O)[C@H]6O)CC[C@@]5(C)[C@]4(C)CC[C@H]3C2(C)C)c([N+](=O)[O-])cc1[N+](=O)[O-]	Active	Active	Active	Activity [6]: Active
CN(CCO)/[N+]([O-])=N/Oc1cc(N[C@@H](Cc2ccccc2)C(=O)O[C@H]2CC[C@]3(C)[C@H]4CC=C5[C@@H]6CC(C)(C)CC[C@]6(C(=O)O[C@@H]6O[C@H](CO)[C@H](O)[C@H](O)[C@H]6O)CC[C@@]5(C)[C@]4(C)CC[C@H]3C2(C)C)c([N+](=O)[O-])cc1[N+](=O)[O-]	Active	Active	Active	–
CN(CCO)c1cc(N2CCN(CC(=O)O[C@H]3CC[C@]4(C)[C@H]5CC=C6[C@@H]7CC(C)(C)CC[C@]7(C(=O)O[C@@H]7O[C@H](CO)[C@H](O)[C@H](O)[C@H]7O)CC[C@@]6(C)[C@]5(C)CC[C@H]4C3(C)C)CC2)c([N+](=O)[O-])cc1[N+](=O)[O-]	–	–	–	Activity [1]: Active; Activity [7]: Active; Activity [8]: Active; Activity [9]: inactive
C[C@H](Nc1cc(O/N=[N+](\[O-])N(C)CCO)c([N+](=O)[O-])cc1[N+](=O)[O-])C(=O)O[C@H]1CC[C@]2(C)[C@H]3CC=C4[C@@H]5CC(C)(C)CC[C@]5(C(=O)O[C@@H]5O[C@H](CO)[C@H](O)[C@H](O)[C@H]5O)CC[C@@]4(C)[C@]3(C)CC[C@H]2C1(C)C	Active	Active	Active	–
